Source: PMC5272797 (Biochemical pharmacology, 2016)

How the values were obtained:
Assay type in all cases: biochemical
EGFR L861Q = EGFR L861Q (Homo sapiens, UniProt P00533, L861Q); assay: Z'-LYTE Tyr4 peptide kinase assay, single dose […]; conditions: read-out: Mean inhibition at 10 μM (%)
EGFR (ErbB1) = EGFR (ErbB1) (Homo sapiens, UniProt P00533); assay: Z'-LYTE Tyr4 peptide kinase assay, 10-point dose-response
EGFR T790M = EGFR T790M (Homo sapiens, UniProt P00533, T790M); assay: Z'-LYTE Tyr4 peptide kinase assay, single dose […]; conditions: read-out: Mean inhibition at 10 μM (%)
Sequence of EGFR T790M (P00533 668-1210 T790M limits assumed): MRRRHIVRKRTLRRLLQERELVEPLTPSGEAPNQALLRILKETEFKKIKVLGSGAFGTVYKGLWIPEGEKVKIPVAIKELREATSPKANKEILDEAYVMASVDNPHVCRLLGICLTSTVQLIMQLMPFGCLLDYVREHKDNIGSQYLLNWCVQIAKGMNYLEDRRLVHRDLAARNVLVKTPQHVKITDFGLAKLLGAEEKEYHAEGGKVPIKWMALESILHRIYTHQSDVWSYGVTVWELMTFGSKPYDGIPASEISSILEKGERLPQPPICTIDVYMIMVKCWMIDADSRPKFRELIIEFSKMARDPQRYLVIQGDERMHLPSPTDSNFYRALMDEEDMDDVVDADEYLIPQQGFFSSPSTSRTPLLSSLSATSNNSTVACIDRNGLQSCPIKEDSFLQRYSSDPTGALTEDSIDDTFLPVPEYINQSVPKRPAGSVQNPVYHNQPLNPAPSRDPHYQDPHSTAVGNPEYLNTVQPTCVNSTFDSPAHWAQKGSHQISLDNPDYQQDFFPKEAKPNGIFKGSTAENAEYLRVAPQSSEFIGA

EGFR L858R = EGFR L858R (Homo sapiens, UniProt P00533, L858R); assay: Z'-LYTE Tyr4 peptide kinase assay, single dose […]; conditions: read-out: Mean inhibition at 10 μM (%)
Sequence of EGFR L858R (P00533 668-1210 L858R limits assumed): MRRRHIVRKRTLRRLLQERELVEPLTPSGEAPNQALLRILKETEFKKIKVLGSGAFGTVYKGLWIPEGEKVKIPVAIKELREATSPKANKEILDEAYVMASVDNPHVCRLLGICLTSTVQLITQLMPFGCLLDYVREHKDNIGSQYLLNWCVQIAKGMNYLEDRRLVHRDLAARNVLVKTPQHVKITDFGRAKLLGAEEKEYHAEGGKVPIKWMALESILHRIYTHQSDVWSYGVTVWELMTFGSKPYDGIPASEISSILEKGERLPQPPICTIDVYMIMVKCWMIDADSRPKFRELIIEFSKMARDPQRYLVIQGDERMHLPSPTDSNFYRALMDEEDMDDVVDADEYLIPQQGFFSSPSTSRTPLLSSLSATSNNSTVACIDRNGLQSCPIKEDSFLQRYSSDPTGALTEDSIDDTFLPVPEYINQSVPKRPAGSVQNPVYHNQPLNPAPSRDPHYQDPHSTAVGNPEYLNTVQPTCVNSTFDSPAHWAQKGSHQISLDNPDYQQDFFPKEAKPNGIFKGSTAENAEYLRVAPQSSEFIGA

Sequence of EGFR (ErbB1) (P00533 668-1210): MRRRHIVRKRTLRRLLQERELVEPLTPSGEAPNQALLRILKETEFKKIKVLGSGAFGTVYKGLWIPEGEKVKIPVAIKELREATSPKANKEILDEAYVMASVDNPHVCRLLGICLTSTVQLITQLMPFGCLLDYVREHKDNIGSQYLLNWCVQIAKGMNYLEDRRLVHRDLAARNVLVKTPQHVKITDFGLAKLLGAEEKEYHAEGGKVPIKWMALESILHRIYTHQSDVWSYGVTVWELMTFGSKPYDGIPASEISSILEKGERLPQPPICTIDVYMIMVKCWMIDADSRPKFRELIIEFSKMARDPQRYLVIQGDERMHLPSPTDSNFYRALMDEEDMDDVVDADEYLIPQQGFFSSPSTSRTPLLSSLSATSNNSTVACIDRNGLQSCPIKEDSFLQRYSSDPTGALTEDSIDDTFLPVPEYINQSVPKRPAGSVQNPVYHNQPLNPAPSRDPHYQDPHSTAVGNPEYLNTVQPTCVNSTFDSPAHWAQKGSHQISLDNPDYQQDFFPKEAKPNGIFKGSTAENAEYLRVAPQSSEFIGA
Sequence of EGFR L861Q (P00533 668-1210 L861Q limits assumed): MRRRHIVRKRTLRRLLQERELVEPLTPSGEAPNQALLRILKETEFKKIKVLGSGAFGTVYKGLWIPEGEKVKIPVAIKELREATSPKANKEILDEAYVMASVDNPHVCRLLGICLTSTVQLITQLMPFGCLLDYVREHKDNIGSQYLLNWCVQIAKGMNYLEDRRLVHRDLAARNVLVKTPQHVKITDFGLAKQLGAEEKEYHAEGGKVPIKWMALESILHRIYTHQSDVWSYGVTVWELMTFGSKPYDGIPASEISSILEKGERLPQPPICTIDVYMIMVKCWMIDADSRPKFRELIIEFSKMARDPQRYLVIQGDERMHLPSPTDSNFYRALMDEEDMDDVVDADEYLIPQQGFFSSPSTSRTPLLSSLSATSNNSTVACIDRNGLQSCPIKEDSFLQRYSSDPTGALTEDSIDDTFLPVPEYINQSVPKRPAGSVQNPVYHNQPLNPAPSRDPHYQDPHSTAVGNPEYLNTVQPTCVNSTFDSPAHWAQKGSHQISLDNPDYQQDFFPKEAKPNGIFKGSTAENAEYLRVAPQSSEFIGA

CCCC(=O)O[C@]1(C)CC[C@H](C(C)C)[C@@H]2[C@H]1[C@H]1C[C@](C)(O)[C@@H](O)CC[C@@](C)(OC(C)=O)[C@@H]2O1 [compound 1, Pachycladin A]
inhibition at 10 µM (EGFR L861Q): 93% | IC50 (EGFR (ErbB1)): 570 nM | inhibition at 10 µM (EGFR T790M): 93% | inhibition at 10 µM (EGFR L858R): 98%
